Measured values as given in the supplement of paper PMC8612539.

System: Histophilus somni
Experiment: minimum inhibitory concentration (MIC)
Protocol: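 Broth microdilution MIC (Sensititre BOPO7F bovine plate, CLSI methods) of 19 antimicrobials against field isolates of P. multocida, M. haemolytica, H. somni (deep nasopharyngeal swabs) and E. coli, Enterococcus spp. (rectal swabs) from weaned dairy heifers. Incubation 16-24 h at 35 C. MIC is the lowest concentration preventing visible growth. Values with <= or > lie at the tested range limits. Trimethoprim-sulfamethoxazole is given as the trimethoprim component of a 1:19 mixture.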

CO/N=C(\C(=O)N[C@@H]1C(=O)N2C(C(=O)O)=C(CSC(=O)c3ccco3)CS[C@H]12)c1csc(N)n1 [Ceftiofur]
Conditions	minimum inhibitory concentration [µg/mL]
isolate (source animal id): 3	≤ 0.25
isolate (source animal id): 4	≤ 0.25
isolate (source animal id): 7	≤ 0.25
isolate (source animal id): 14	≤ 0.25
isolate (source animal id): 15	≤ 0.25
isolate (source animal id): 17	≤ 0.25
isolate (source animal id): 18	≤ 0.25
isolate (source animal id): 20	≤ 0.25
isolate (source animal id): 23	≤ 0.25
isolate (source animal id): 45	≤ 0.25
isolate (source animal id): 53	≤ 0.25
isolate (source animal id): 83	≤ 0.25
isolate (source animal id): 88	≤ 0.25
isolate (source animal id): 92	≤ 0.25
isolate (source animal id): 93	≤ 0.25
isolate (source animal id): 99	≤ 0.25
isolate (source animal id): 100	≤ 0.25
isolate (source animal id): 105	≤ 0.25
isolate (source animal id): 107	≤ 0.25
isolate (source animal id): 108	≤ 0.25
isolate (source animal id): 109	≤ 0.25
isolate (source animal id): 110	≤ 0.25
isolate (source animal id): 117	≤ 0.25
isolate (source animal id): 121	≤ 0.25
isolate (source animal id): 123	≤ 0.25
isolate (source animal id): 124	≤ 0.25
isolate (source animal id): 127	≤ 0.25
isolate (source animal id): 128	≤ 0.25
isolate (source animal id): 130	≤ 0.25
isolate (source animal id): 132	≤ 0.25
isolate (source animal id): 135	≤ 0.25
isolate (source animal id): 140	≤ 0.25
isolate (source animal id): 141	≤ 0.25
isolate (source animal id): 142	≤ 0.25
isolate (source animal id): 144	≤ 0.25
isolate (source animal id): 146	≤ 0.25
isolate (source animal id): 147	≤ 0.25
isolate (source animal id): 151	≤ 0.25
isolate (source animal id): 153	≤ 0.25
isolate (source animal id): 154	≤ 0.25
isolate (source animal id): 156	≤ 0.25
isolate (source animal id): 157	≤ 0.25
isolate (source animal id): 176	≤ 0.25
isolate (source animal id): 183	≤ 0.25
isolate (source animal id): 186	≤ 0.25
isolate (source animal id): 196	≤ 0.25
isolate (source animal id): 198	≤ 0.25
isolate (source animal id): 200	≤ 0.25
isolate (source animal id): 206	≤ 0.25
isolate (source animal id): 208	≤ 0.25
isolate (source animal id): 210	≤ 0.25
isolate (source animal id): 212	≤ 0.25
isolate (source animal id): 215	≤ 0.25
isolate (source animal id): 216	≤ 0.25
isolate (source animal id): 218	≤ 0.25
isolate (source animal id): 219	≤ 0.25
isolate (source animal id): 224	≤ 0.25
isolate (source animal id): 228	≤ 0.25
isolate (source animal id): 230	≤ 0.25
isolate (source animal id): 233	≤ 0.25
isolate (source animal id): 238	≤ 0.25
isolate (source animal id): 239	≤ 0.25
isolate (source animal id): 241	≤ 0.25
isolate (source animal id): 242	≤ 0.25
isolate (source animal id): 243	≤ 0.25
isolate (source animal id): 245	≤ 0.25
isolate (source animal id): 246	≤ 0.25
isolate (source animal id): 247	≤ 0.25
isolate (source animal id): 248	≤ 0.25
isolate (source animal id): 250	≤ 0.25
isolate (source animal id): 251	≤ 0.25
isolate (source animal id): 252	≤ 0.25
isolate (source animal id): 254	≤ 0.25
isolate (source animal id): 258	≤ 0.25
isolate (source animal id): 259	≤ 0.25
isolate (source animal id): 262	≤ 0.25
isolate (source animal id): 264	≤ 0.25
isolate (source animal id): 265	≤ 0.25
isolate (source animal id): 266	≤ 0.25
isolate (source animal id): 267	≤ 0.25
isolate (source animal id): 269	≤ 0.25
isolate (source animal id): 271	≤ 0.25
isolate (source animal id): 272	≤ 0.25
isolate (source animal id): 274	≤ 0.25
isolate (source animal id): 276	≤ 0.25
isolate (source animal id): 278	≤ 0.25
isolate (source animal id): 280	≤ 0.25
isolate (source animal id): 281	≤ 0.25
isolate (source animal id): 283	≤ 0.25
isolate (source animal id): 288	≤ 0.25
isolate (source animal id): 291	≤ 0.25
isolate (source animal id): 292	≤ 0.25
isolate (source animal id): 296	≤ 0.25
isolate (source animal id): 306	≤ 0.25
isolate (source animal id): 336	≤ 0.25
isolate (source animal id): 337	≤ 0.25
isolate (source animal id): 341	≤ 0.25

CCN1CCN(c2cc3c(cc2F)c(=O)c(C(=O)O)cn3C2CC2)CC1 [Enrofloxacin]
Conditions	minimum inhibitory concentration [µg/mL]
isolate (source animal id): 3	≤ 0.12
isolate (source animal id): 4	≤ 0.12
isolate (source animal id): 7	≤ 0.12
isolate (source animal id): 14	≤ 0.12
isolate (source animal id): 15	≤ 0.12
isolate (source animal id): 17	≤ 0.12
isolate (source animal id): 18	≤ 0.12
isolate (source animal id): 20	≤ 0.12
isolate (source animal id): 23	≤ 0.12
isolate (source animal id): 45	≤ 0.12
isolate (source animal id): 53	≤ 0.12
isolate (source animal id): 83	≤ 0.12
isolate (source animal id): 88	≤ 0.12
isolate (source animal id): 92	≤ 0.12
isolate (source animal id): 93	≤ 0.12
isolate (source animal id): 99	≤ 0.12
isolate (source animal id): 100	≤ 0.12
isolate (source animal id): 105	≤ 0.12
isolate (source animal id): 107	≤ 0.12
isolate (source animal id): 108	≤ 0.12
isolate (source animal id): 109	≤ 0.12
isolate (source animal id): 110	≤ 0.12
isolate (source animal id): 117	≤ 0.12
isolate (source animal id): 121	≤ 0.12
isolate (source animal id): 123	≤ 0.12
isolate (source animal id): 124	≤ 0.12
isolate (source animal id): 127	≤ 0.12
isolate (source animal id): 128	≤ 0.12
isolate (source animal id): 130	≤ 0.12
isolate (source animal id): 132	≤ 0.12
isolate (source animal id): 135	≤ 0.12
isolate (source animal id): 140	≤ 0.12
isolate (source animal id): 141	≤ 0.12
isolate (source animal id): 142	≤ 0.12
isolate (source animal id): 144	≤ 0.12
isolate (source animal id): 146	≤ 0.12
isolate (source animal id): 147	≤ 0.12
isolate (source animal id): 151	≤ 0.12
isolate (source animal id): 153	≤ 0.12
isolate (source animal id): 154	≤ 0.12
isolate (source animal id): 156	≤ 0.12
isolate (source animal id): 157	≤ 0.12
isolate (source animal id): 176	≤ 0.12
isolate (source animal id): 183	≤ 0.12
isolate (source animal id): 186	≤ 0.12
isolate (source animal id): 196	≤ 0.12
isolate (source animal id): 198	≤ 0.12
isolate (source animal id): 200	≤ 0.12
isolate (source animal id): 206	≤ 0.12
isolate (source animal id): 208	≤ 0.12
isolate (source animal id): 210	≤ 0.12
isolate (source animal id): 212	≤ 0.12
isolate (source animal id): 215	≤ 0.12
isolate (source animal id): 216	≤ 0.12
isolate (source animal id): 218	≤ 0.12
isolate (source animal id): 219	≤ 0.12
isolate (source animal id): 224	≤ 0.12
isolate (source animal id): 228	≤ 0.12
isolate (source animal id): 230	≤ 0.12
isolate (source animal id): 233	≤ 0.12
isolate (source animal id): 238	≤ 0.12
isolate (source animal id): 239	≤ 0.12
isolate (source animal id): 241	≤ 0.12
isolate (source animal id): 242	≤ 0.12
isolate (source animal id): 243	≤ 0.12
isolate (source animal id): 245	≤ 0.12
isolate (source animal id): 246	≤ 0.12
isolate (source animal id): 247	≤ 0.12
isolate (source animal id): 248	≤ 0.12
isolate (source animal id): 250	≤ 0.12
isolate (source animal id): 251	≤ 0.12
isolate (source animal id): 252	≤ 0.12
isolate (source animal id): 254	≤ 0.12
isolate (source animal id): 258	≤ 0.12
isolate (source animal id): 259	≤ 0.12
isolate (source animal id): 262	≤ 0.12
isolate (source animal id): 264	≤ 0.12
isolate (source animal id): 265	≤ 0.12
isolate (source animal id): 266	≤ 0.12
isolate (source animal id): 267	≤ 0.12
isolate (source animal id): 269	≤ 0.12
isolate (source animal id): 271	≤ 0.12
isolate (source animal id): 272	≤ 0.12
isolate (source animal id): 274	≤ 0.12
isolate (source animal id): 276	≤ 0.12
isolate (source animal id): 278	≤ 0.12
isolate (source animal id): 280	≤ 0.12
isolate (source animal id): 281	≤ 0.12
isolate (source animal id): 283	≤ 0.12
isolate (source animal id): 288	≤ 0.12
isolate (source animal id): 291	≤ 0.12
isolate (source animal id): 292	≤ 0.12
isolate (source animal id): 296	≤ 0.12
isolate (source animal id): 306	≤ 0.12
isolate (source animal id): 336	≤ 0.12
isolate (source animal id): 337	≤ 0.12
isolate (source animal id): 341	≤ 0.12

CN1C[C@@H]2C[C@H]1CN2c1cc2c(cc1F)c(=O)c(C(=O)O)cn2C1CC1 [Danofloxacin]
Conditions	minimum inhibitory concentration [µg/mL]
isolate (source animal id): 3	≤ 0.12
isolate (source animal id): 4	≤ 0.12
isolate (source animal id): 7	≤ 0.12
isolate (source animal id): 14	≤ 0.12
isolate (source animal id): 15	≤ 0.12
isolate (source animal id): 17	≤ 0.12
isolate (source animal id): 18	≤ 0.12
isolate (source animal id): 20	≤ 0.12
isolate (source animal id): 23	≤ 0.12
isolate (source animal id): 45	≤ 0.12
isolate (source animal id): 53	≤ 0.12
isolate (source animal id): 83	≤ 0.12
isolate (source animal id): 88	≤ 0.12
isolate (source animal id): 92	≤ 0.12
isolate (source animal id): 93	≤ 0.12
isolate (source animal id): 99	≤ 0.12
isolate (source animal id): 100	≤ 0.12
isolate (source animal id): 105	≤ 0.12
isolate (source animal id): 107	≤ 0.12
isolate (source animal id): 108	≤ 0.12
isolate (source animal id): 109	≤ 0.12
isolate (source animal id): 110	≤ 0.12
isolate (source animal id): 117	≤ 0.12
isolate (source animal id): 121	≤ 0.12
isolate (source animal id): 123	≤ 0.12
isolate (source animal id): 124	≤ 0.12
isolate (source animal id): 127	≤ 0.12
isolate (source animal id): 128	≤ 0.12
isolate (source animal id): 130	≤ 0.12
isolate (source animal id): 132	≤ 0.12
isolate (source animal id): 135	≤ 0.12
isolate (source animal id): 140	≤ 0.12
isolate (source animal id): 141	≤ 0.12
isolate (source animal id): 142	≤ 0.12
isolate (source animal id): 144	≤ 0.12
isolate (source animal id): 146	≤ 0.12
isolate (source animal id): 147	≤ 0.12
isolate (source animal id): 151	≤ 0.12
isolate (source animal id): 153	≤ 0.12
isolate (source animal id): 154	≤ 0.12
isolate (source animal id): 156	≤ 0.12
isolate (source animal id): 157	≤ 0.12
isolate (source animal id): 176	≤ 0.12
isolate (source animal id): 183	≤ 0.12
isolate (source animal id): 186	≤ 0.12
isolate (source animal id): 196	≤ 0.12
isolate (source animal id): 198	≤ 0.12
isolate (source animal id): 200	≤ 0.12
isolate (source animal id): 206	≤ 0.12
isolate (source animal id): 208	≤ 0.12
isolate (source animal id): 210	≤ 0.12
isolate (source animal id): 212	≤ 0.12
isolate (source animal id): 215	≤ 0.12
isolate (source animal id): 216	≤ 0.12
isolate (source animal id): 218	≤ 0.12
isolate (source animal id): 219	≤ 0.12
isolate (source animal id): 224	≤ 0.12
isolate (source animal id): 228	≤ 0.12
isolate (source animal id): 230	≤ 0.12
isolate (source animal id): 233	≤ 0.12
isolate (source animal id): 238	≤ 0.12
isolate (source animal id): 239	≤ 0.12
isolate (source animal id): 241	≤ 0.12
isolate (source animal id): 242	≤ 0.12
isolate (source animal id): 243	≤ 0.12
isolate (source animal id): 245	≤ 0.12
isolate (source animal id): 246	≤ 0.12
isolate (source animal id): 247	≤ 0.12
isolate (source animal id): 248	≤ 0.12
isolate (source animal id): 250	≤ 0.12
isolate (source animal id): 251	≤ 0.12
isolate (source animal id): 252	≤ 0.12
isolate (source animal id): 254	≤ 0.12
isolate (source animal id): 258	≤ 0.12
isolate (source animal id): 259	≤ 0.12
isolate (source animal id): 262	≤ 0.12
isolate (source animal id): 264	≤ 0.12
isolate (source animal id): 265	≤ 0.12
isolate (source animal id): 266	≤ 0.12
isolate (source animal id): 267	≤ 0.12
isolate (source animal id): 269	≤ 0.12
isolate (source animal id): 271	≤ 0.12
isolate (source animal id): 272	≤ 0.12
isolate (source animal id): 274	≤ 0.12
isolate (source animal id): 276	≤ 0.12
isolate (source animal id): 278	≤ 0.12
isolate (source animal id): 280	≤ 0.12
isolate (source animal id): 281	≤ 0.12
isolate (source animal id): 283	≤ 0.12
isolate (source animal id): 288	≤ 0.12
isolate (source animal id): 291	≤ 0.12
isolate (source animal id): 292	≤ 0.12
isolate (source animal id): 296	≤ 0.12
isolate (source animal id): 306	≤ 0.12
isolate (source animal id): 336	≤ 0.12
isolate (source animal id): 337	≤ 0.12
isolate (source animal id): 341	≤ 0.12
